Measured values taken from paper PMC11798738, “Targeting ASK1 by CS17919 alleviates kidney‐ and liver‐related diseases in murine models” (Animal Models and Experimental Medicine, 2024).

What was measured:
L02 cells = assay: Cell protection in PA-stimulated L02 cells (Cell Titer-Glo viability); type: cell-based, human; conditions: 50 μmol/L PA, 72 h
Experimental: L02 cells were cultured in DMEM medium (Gibco, 11 965 092, Carlsbad, CA, USA) supplemented with 20% FBS and 1× penicillin–streptomycin. L02 cells were inoculated in two 96‐well plates at 1E4 cells/well (200 μL). The following day, the cells were stimulated with 50 μmol/L PA (dissolved in ethanol to make a 200× stock solution and then added to the medium) and simultaneously incubated with different concentrations of CS17919 and GS‐4997 (CS17919 and GS‐4997 stock solutions were added to the well plates to reach a final concentration of 10–0.3 μmol/L). After 72 h of incubation, the original medium was removed, followed by the addition of 100 μL of new DMEM medium and 60 μL of Cell Titer‐Glo reagent per well. The cells were incubated for 5 min in the dark, and then transferred to a black permeable plate for detection using an enzyme plate reader (Tecan spark, Grödig, Austria).

[1] = Metabolic stability in liver microsomes; type: in vitro ADME; conditions: Mouse
CYP 2C9 = CYP 2C9 (Homo sapiens, UniProt P11712); assay: CYP inhibition in vitro; type: in vitro ADME
Chain of CYP 2C9 (P11712 whole entry): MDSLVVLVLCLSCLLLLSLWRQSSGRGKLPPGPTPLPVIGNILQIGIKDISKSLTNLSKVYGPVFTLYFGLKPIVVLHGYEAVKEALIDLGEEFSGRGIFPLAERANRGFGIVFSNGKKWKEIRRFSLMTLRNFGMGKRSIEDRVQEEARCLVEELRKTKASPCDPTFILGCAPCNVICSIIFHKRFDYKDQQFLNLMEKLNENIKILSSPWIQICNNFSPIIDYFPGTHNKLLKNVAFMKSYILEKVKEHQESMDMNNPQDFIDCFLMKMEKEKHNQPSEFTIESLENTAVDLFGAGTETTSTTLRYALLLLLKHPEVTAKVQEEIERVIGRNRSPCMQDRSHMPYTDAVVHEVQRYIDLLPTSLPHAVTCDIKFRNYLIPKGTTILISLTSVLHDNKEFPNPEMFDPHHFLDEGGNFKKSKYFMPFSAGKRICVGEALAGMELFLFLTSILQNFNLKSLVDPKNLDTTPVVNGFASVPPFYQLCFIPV

[2] = Tissue distribution in mice, oral; type: in vivo, C57BL/6J mice; conditions: 20 mg/kg gavage
Experimental: Male C57BL/6J mice at 6–8 weeks (Beijing Huafukang Biotechnology Co., Ltd) were also selected for tissue distribution studies. Mice were gavage‐administered at 20 mg/kg and anesthetized at 1, 2, 4, and 8 h after administration for tissue collection, including whole blood, heart, liver, kidney, and brain. These organs were homogenized using a tissue homogenizer and analyzed together with the plasma according to the standard LC/MS procedure.

CYP 2B6 = CYP 2B6 (Homo sapiens, UniProt P20813); assay: CYP inhibition in vitro; type: in vitro ADME
Chain of CYP 2B6 (P20813 whole entry): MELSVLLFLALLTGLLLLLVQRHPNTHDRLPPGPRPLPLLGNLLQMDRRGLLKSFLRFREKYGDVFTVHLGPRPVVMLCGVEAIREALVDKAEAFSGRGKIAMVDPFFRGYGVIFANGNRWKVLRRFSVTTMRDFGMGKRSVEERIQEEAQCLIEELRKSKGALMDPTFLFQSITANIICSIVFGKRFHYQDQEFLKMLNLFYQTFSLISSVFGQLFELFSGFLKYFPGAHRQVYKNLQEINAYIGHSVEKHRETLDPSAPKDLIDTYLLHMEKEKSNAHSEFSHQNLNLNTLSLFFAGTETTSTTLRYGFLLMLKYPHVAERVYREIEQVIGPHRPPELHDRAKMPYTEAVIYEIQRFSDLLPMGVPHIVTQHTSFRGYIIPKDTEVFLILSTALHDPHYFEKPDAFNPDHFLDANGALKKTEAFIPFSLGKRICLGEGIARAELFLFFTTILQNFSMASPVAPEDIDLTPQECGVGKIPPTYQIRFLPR

CYP 2D6 = CYP 2D6 (Homo sapiens, UniProt P10635); assay: CYP inhibition in vitro; type: in vitro ADME
Chain of CYP 2D6 (P10635 whole entry): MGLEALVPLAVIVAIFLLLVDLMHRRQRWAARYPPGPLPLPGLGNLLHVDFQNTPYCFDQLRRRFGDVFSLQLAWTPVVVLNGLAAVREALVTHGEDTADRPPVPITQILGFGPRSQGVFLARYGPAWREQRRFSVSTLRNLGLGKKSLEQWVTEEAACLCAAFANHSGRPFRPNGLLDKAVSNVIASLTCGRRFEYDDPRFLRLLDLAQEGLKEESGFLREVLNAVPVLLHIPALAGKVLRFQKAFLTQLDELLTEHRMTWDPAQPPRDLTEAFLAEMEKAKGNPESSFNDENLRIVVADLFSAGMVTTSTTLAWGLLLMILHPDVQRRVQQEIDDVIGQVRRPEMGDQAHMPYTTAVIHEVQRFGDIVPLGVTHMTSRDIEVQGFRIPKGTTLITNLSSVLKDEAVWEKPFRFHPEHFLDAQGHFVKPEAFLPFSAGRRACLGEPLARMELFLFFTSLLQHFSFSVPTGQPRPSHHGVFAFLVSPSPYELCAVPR

CYP 1A2 = CYP 1A2 (Homo sapiens, UniProt P05177)
Chain of CYP 1A2 (P05177 whole entry): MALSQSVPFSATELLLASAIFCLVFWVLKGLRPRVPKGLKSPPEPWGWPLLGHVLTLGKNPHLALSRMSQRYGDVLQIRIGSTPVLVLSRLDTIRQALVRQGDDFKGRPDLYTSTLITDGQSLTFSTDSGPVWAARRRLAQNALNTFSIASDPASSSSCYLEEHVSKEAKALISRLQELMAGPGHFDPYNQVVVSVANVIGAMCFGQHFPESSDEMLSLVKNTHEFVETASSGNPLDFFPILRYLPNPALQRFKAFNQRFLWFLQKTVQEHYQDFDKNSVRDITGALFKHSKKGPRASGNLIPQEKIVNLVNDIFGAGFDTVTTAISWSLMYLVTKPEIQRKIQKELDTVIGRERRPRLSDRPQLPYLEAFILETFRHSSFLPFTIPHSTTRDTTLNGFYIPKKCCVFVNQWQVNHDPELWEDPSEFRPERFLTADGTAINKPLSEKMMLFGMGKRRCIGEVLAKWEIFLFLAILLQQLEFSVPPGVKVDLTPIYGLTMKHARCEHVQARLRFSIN

NASH mouse model = assay: CCL4- and HFD-induced NASH mouse model; type: in vivo, C57BL/6J mice; conditions: data not shown; model group 5/9
CYP 2C19 = CYP 2C19 (Homo sapiens, UniProt P33261); assay: CYP inhibition in vitro; type: in vitro ADME
Chain of CYP 2C19 (P33261 whole entry): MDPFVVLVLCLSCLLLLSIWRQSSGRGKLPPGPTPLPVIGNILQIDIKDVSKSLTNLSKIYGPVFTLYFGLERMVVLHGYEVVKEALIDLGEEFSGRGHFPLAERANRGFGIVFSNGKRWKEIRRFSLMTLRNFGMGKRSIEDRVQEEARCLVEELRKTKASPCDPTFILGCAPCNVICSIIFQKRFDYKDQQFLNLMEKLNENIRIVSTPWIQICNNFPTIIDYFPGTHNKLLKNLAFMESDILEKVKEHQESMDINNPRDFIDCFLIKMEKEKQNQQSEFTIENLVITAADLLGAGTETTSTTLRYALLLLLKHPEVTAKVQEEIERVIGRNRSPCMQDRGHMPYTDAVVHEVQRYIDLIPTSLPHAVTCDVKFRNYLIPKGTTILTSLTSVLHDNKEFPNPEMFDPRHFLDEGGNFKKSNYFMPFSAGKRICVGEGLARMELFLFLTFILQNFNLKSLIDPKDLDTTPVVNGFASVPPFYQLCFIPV

UUO mouse model = UUO mouse model of kidney injury and fibrosis; type: in vivo, C57BL/6J mice
Experimental: 55 C57BL/6J mice, male, 6–8 weeks old were purchased from Chengdu Pharmachem Biotechnology Co. (Chengdu, China) and randomly divided into 5 groups according to their body weight: Sham (n = 10), Model (n = 15), CS17919L (10 mg/kg, n = 10), CS17919H (60 mg/kg, n = 10), and GS‐4997 (30 mg/kg, n = 10). The mice were anesthetized and fixed on the operating table, and the abdominal cortex and muscles were cut in the middle of the right side of the abdomen, and the ureter was searched for along the renal hilum. The ureter was separated using a glass split‐needle and ligated at the opening of the renal pelvis and the upper 1/3 of the ureter, and the ureter was cut between the two ligatures. Finally, the muscle and skin were closed with consecutive sutures, and animals were kept under observation until they awoke. Both the Sham and the Model group received solvent (0.2% CMC‐Na + 0.1% Tween‐80) orally twice daily. CS17919 and GS‐4997 were administered by gavage twice daily at the corresponding doses for 11 days. All treatments were started one day before surgical operation. All mice were sacrificed one day after administration with overnight fasting. Blood was collected, and serum was isolated for the analysis of urea nitrogen and creatinine. The kidney of each mouse was removed, weighed and fixed in 10% formalin solution for pathological study.
Masson staining was applied to determine kidney fibrosis in the UUO model. Thin 4 μm paraffin sections of each sample were used in this study, which followed the standard procedure. The sections were stained with Hematoxylin staining solution for 5–10 min and then washed, followed by staining with Ponceau S‐acid fuchsin stain for around 5–10 min. The sections were treated with 1% phosphomolybdic acid and Aniline Blue solution, and finally dehydrated stepwise in alcohol and sealed. VIS7.0 software was used to analyze the area of kidney fibrosis and the percentage of the fibrosis area in the scanning area was calculated.

DKD mouse model = assay: STZ + HFD-induced DKD mouse model; type: in vivo, mice; conditions: 50 mg/kg gavage twice a day, ten weeks
Experimental: 26 male neonatal mice were purchased from Chengdu Pharmachem Biotechnology Co., 5 of which were assigned to the control group and fed a chow diet. The other 21 mice were subcutaneously injected with STZ ([…]) 48 h after birth. After 4 weeks, these mice were fed a high‐fat diet (HFD, Research Diet, New Brunswick, NJ, USA) and randomly subdivided into two groups based on blood glucose level followed by 6 h of fasting: Model (n = 11) and CS17919 (n = 10). Both the control and model groups were given the solvent mentioned above, administered orally twice a day, while CS17919 was administered twice a day by gavage at a dose of 50 mg/kg for 70 days. Body weight measurements were performed twice a week during the administration period. 24‐h urine was collected for each mouse 2 days before sacrifice. Creatinine clearance was calculated using the following formula: creatinine clearance = urinary creatinine (mg/dL) × urine volume per minute (ml/min)/blood creatinine (mg/dL). Fasting blood glucose was measured before sacrifice. After a 10‐week drug intervention, mice were sacrificed, and blood was collected to isolate serum for the urea nitrogen and serum creatinine test. The kidneys of each mouse were then removed, weighed and fixed in 10% formalin solution for pathological study.
PAS staining was applied to determine kidney glomerular sclerosis in the DKD model. Thin 4 μm paraffin sections of each sample were used in this study, which followed the standard procedure. Periodic acid‐treated paraffin sections were stained using Schiff for 10 min, after rinsing the residual acid. Hematoxylin staining was performed for 3 min, and the samples were then dehydrated and sealed. The PAS score was calculated by semiquantitative analysis as follows: 0, without sclerosis; 1, 1%–25% sclerosis area; 2, 26%–50% sclerosis area; 3, 51%–75% sclerosis area; 4, >75% sclerosis area.

[3] = CS17919 10 and 60 mg/kg, GS-4997 30 mg/kg, gavage twice daily, 11 days

In the case of `Cc1cc(F)c(C(=O)Nc2cccc(-c3nncn3[C@H](C)C(F)(F)F)n2)cc1NC(=O)C1CC1` [CS17919], the “Cell protection (cell viability normalized to PA-treated cells)” value (L02 cells; 0.32–10 μmol/L drug) is reported as “significantly prevented apoptosis at all doses”, the “Cell viability at high drug doses” value (L02 cells; 5 and 10 μmol/L drug) is reported as “mild protective effect” and the “T1/2 in liver microsomes” value [1] is reported as “>145 min”. For the same compound, the IC50 (CYP 2C9) was > 10 µM, the Tissue accumulation [2] was “tissue‐specific accumulation of CS17919 in the liver and kidney” and the Brain concentration ([2]; 1 h, mean ± SD, n = 3) was 30.42 ± 6.82 ng/g. The Heart concentration ([2]; 1 h, mean ± SD, n = 3) was 1330.94 ± 384.66 ng/g, the Kidney concentration ([2]; 1 h, mean ± SD, n = 3) was 4353.18 ± 260.20 ng/g and the Liver concentration ([2]; 1 h, mean ± SD, n = 3) was 8933.89 ± 456.44 ng/g. For the same compound, the Plasma concentration ([2]; 1 h, mean ± SD, n = 3) was 3104.56 ± 474.21 ng/mL, the Brain concentration ([2]; 2 h, mean ± SD, n = 3) was 7.37 ± 1.98 ng/g and the Heart concentration ([2]; 2 h, mean ± SD, n = 3) was 918.02 ± 156.73 ng/g. The Kidney concentration ([2]; 2 h, mean ± SD, n = 3) was 2751.58 ± 252.41 ng/g, the Liver concentration ([2]; 2 h, mean ± SD, n = 3) was 5322.41 ± 114.54 ng/g and the Plasma concentration ([2]; 2 h, mean ± SD, n = 3) was 2737.71 ± 208.45 ng/mL. For the same compound, the Brain concentration ([2]; 4 h, mean ± SD, n = 3) was 8.28 ± 4.78 ng/g, the Heart concentration ([2]; 4 h, mean ± SD, n = 3) was 338.03 ± 97.76 ng/g and the Kidney concentration ([2]; 4 h, mean ± SD, n = 3) was 1173.69 ± 135.53 ng/g. It also gave a Liver concentration ([2]; 4 h, mean ± SD, n = 3) of 2371.88 ± 421.50 ng/g, a Plasma concentration ([2]; 4 h, mean ± SD, n = 3) of 1444.51 ± 155.53 ng/mL and a Heart concentration ([2]; 8 h, mean ± SD, n = 3) of 256.60 ± 117.57 ng/g. It also gave a Kidney concentration ([2]; 8 h, mean ± SD, n = 3) of 993.13 ± 136.67 ng/g, a Liver concentration ([2]; 8 h, mean ± SD, n = 3) of 1939.43 ± 337.32 ng/g and a Plasma concentration ([2]; 8 h, mean ± SD, n = 3) of 856.1 ± 332.34 ng/mL. The Brain concentration ([2]; 8 h, LLOQ 1 ng/g) was “LLOQ (<1) ng/g”, the IC50 (CYP 2B6) was > 10 µM and the IC50 (CYP 2D6) was > 10 µM. For the same compound, the IC50 (CYP 1A2) was > 10 µM, the “Occurrence of hepatocellular carcinoma (mice affected/group)” value (NASH mouse model) was 3/8 and the IC50 (CYP 2C19) was > 10 µM. For the same compound, the “Area of kidney fibrosis (Masson staining)” value (UUO mouse model; [3]) was “tendency to reduce”, the “Serum creatinine vs model group” value (UUO mouse model; [3]) was “non‐significant tendency to decrease” and the “Serum urea nitrogen vs model group” value (UUO mouse model; [3]) was “significantly reduced”. The “Inflammatory infiltration and interstitial fibrosis scores (H&E)” value (UUO mouse model; CS17919 high-dose group (60 mg/kg twice daily, 11 days)) was “improved significantly”, the Blood glucose (DKD mouse model) was “mildly reduced” and the Body weight (DKD mouse model) was “slight weight loss”. The Creatinine clearance (DKD mouse model) was “non‐significant tendency to improve”, the “Glomerular sclerosis score (PAS staining) vs model group” value (DKD mouse model) was “significantly reduced” and the “Insulin sensitivity (serum insulin) vs model group” value (DKD mouse model) was “slightly increased”. The Renal coefficients (DKD mouse model) was “improved”, the Serum creatinine (DKD mouse model) was “significantly lowered” and the Serum urea nitrogen (DKD mouse model) was “non‐significant tendency to reduce”.
